One series concerns CETP gene expression. In words: Combination effect of double unsaturated fatty acid and DLBS1449 on CETP gene expression. Format: cell-based, human. The following applies: HepG2, 30 μM fatty acid alone, 24 hours, FIG. 8. The protocol:
HepG2 cells were cultured at 6-well plate until 60% of cell density was reached. Change of medium was then performed, using serum-free medium and incubated for 24 hours. Those cells were then treated with 4 different treatments which were 30 μM of arachidonic acid, 30 μM of linoleic acid, combination of arachidonic acid with 75 μg/ml of DLBS1449 and combination of linoleic acid with 75 μg/ml of DLBS1449. These treatments were performed for 24 hours. Total RNA of HepG2 cells treated with DLBS1449 were isolated using Trizol solution according to the procedure available from the solution. Total RNA were then measured using NanoDrop machine and visualized using electrophoresis method. Further, RNA with good quality will be used to synthesize cDNA through RT-PCR process using PCR Thermocycler machine in a certain condition that has been optimized.

For series [1] the following is noted: clinical trials, patients consuming the drug; cited from earlier work.

Molecules are shown by their SMILES. “Also recorded” adds a separate entry of the source.

Consider `CCCCC/C=C\C/C=C\CCCCCCCC(=O)O` [linoleic acid], for which the CETP gene expression result in the series with CETP gene expression is recorded as “greater decrease”. Still for that read-out and setting: then `CCCCC/C=C\C/C=C\C/C=C\C/C=C\CCCC(=O)O` [arachidonic acid], with “decrease the CETP gene expression”.

On to `CCOC(=O)N1c2ccc(C(F)(F)F)cc2[C@@H](N(Cc2cc(C(F)(F)F)cc(C(F)(F)F)c2)C(=O)OC)C[C@H]1CC` [torcetrapib], for which the “patients' blood pressure” value in series [1] is “increase of blood pressure; also recorded: increase in patients' blood pressure”.

These data come from US8999404B2, “Phaleria macrocarpa extract, extraction process and its use as cholesteryl ester transferase protein (CETP) inhibitor” (Pt. Dexa Medica, priority 2011, dated 2015).
